Literature values in patent publication US11013707B2, “Administration of oral methyldopa” (ImmunoMolecular Therapeutics, LLC., priority 2018, dated 2021).
Like-named read-outs stand apart in the source and are kept apart here.

Legend:
[1] = man, average
[2] = in vivo

| absorption compared with the L isomer (humans, Au et al. 1972) | fraction of the dose available to the systemic circulation as free α-methyldopa ([1]; administered as tablets) [%] | fraction of the dose available to the systemic circulation as free α-methyldopa ([1]; after an oral solution) [%] | half-life [2] | SMILES | pharmacologic activity (literature, patients with hypertension) |
| --- | --- | --- | --- | --- | --- |
| much less readily absorbed |  |  |  | C[C@@](N)(Cc1ccc(O)c(O)c1)C(=O)O [D-α-methyldopa, D-α-Methyl-3,4-dihydroxyphenylalanine] | no pharmacologic activity |
|  | 27 | 25 | about 105 minutes | C[C@](N)(Cc1ccc(O)c(O)c1)C(=O)O [α-methyldopa, L-α-Methyl-3,4-dihydroxyphenylalanine] |  |
